Measurements: publication PMC10700673, “A Smart Intracellular Self‐Assembling Bioorthogonal Raman Active Nanoprobe for Targeted Tumor Imaging” (Advanced Science, 2023)

Test: self-assembly into nanoparticles, TEM and DLS
Format: physicochemical
Conditions: probe solution without legumain enzyme
Protocol: To accurately evaluate the efficiency of the R6‐AAN‐alkyne‐nitrile nanoprobe, time‐dependent Raman measurements were performed (Figure 2g), where the ratio of alkyne/nitrile peak intensity was used as an indicator of the reaction progress. We found as the reaction progressed the alkyne/nitrile peak intensity increased from 0.22±0.01 to 4.4±0.12 and plateaued at a final value of 4.6±0.12 indicating almost complete conversion of nanoSABER to alkyne‐dimer within 3 h. […] To further get insight into the structural arrangements of the self‐assembled dimers, transmission electron microscopy (TEM) was performed. […]
All materials were sourced from Sigma, Chem Impex, or Thermo Fisher and used as received, with purification performed only when explicitly indicated. […] The mass of synthesized peptides was determined using Bruker AutoFLex III Maldi‐TOF or Voyager DE‐STR MALDI‐TOF mass spectrometers. ^1H NMR spectra were obtained on a 400 MHz Bruker Avance at 27 °C in dimethylsulfoxide (DMSO)‐d6. Ultraviolet–visible (UV–Vis) absorption spectra were recorded with a Perkin Elmer Lambda 950 UV–Vis spectrophotometer. […] High‐resolution fluorescence imaging was performed using a Leica SP8 confocal microscope equipped with a 63× oil‐immersion objective. The size distribution of nanoparticles was determined using dynamic light scattering (DLS) (Zetasizer Nano, Malvern Instruments) at room temperature (RT). […]

For “Ac‐Arg‐Arg‐Arg‐Arg‐Arg‐Arg‐Ala‐Ala‐Asn‐Cys(StBu)‐Pra‐Lys‐CBT [nanoSABER]”, the “nanoparticles in TEM before addition of legumain” value was “did not show any detectable nanoparticles”.
